Assay results taken from BindingDB's records for doi:10.1074/jbc.273.36.23321 (Synaptic Pharmaceutical, 1998).
Residues, ends and D or L forms follow the SMILES beside them.

Legend:
Galanin receptor type 3 [1] = target: T1, Galanin receptor type 3 (Homo sapiens, UniProt O60755)
T1 sequence (O60755 whole entry): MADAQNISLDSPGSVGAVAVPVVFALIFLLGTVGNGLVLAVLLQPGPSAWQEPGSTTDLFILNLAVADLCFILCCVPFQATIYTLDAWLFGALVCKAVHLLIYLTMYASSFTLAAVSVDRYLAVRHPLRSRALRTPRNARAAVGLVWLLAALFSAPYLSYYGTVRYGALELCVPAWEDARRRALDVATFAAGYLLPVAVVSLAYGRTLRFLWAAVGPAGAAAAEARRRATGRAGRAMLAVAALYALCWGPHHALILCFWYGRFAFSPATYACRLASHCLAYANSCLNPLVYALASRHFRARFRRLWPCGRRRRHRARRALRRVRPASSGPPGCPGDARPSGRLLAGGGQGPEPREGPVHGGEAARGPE

Galanin receptor type 3 [2] = target: T2, Galanin receptor type 3 (Rattus norvegicus, UniProt O88626)
T2 sequence (O88626 whole entry): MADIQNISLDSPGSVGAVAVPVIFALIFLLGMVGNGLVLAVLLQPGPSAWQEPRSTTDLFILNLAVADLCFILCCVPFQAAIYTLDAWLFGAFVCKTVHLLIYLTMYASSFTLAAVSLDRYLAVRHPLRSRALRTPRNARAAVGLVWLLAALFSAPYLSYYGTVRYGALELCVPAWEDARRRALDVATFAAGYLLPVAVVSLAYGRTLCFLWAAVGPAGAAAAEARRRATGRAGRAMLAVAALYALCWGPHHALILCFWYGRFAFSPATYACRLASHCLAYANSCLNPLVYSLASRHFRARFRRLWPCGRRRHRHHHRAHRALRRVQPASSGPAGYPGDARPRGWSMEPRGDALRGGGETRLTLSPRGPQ

Galanin receptor type 2 = target: T3, Galanin receptor type 2 (Rattus norvegicus, UniProt O08726)
T3 sequence (O08726 whole entry): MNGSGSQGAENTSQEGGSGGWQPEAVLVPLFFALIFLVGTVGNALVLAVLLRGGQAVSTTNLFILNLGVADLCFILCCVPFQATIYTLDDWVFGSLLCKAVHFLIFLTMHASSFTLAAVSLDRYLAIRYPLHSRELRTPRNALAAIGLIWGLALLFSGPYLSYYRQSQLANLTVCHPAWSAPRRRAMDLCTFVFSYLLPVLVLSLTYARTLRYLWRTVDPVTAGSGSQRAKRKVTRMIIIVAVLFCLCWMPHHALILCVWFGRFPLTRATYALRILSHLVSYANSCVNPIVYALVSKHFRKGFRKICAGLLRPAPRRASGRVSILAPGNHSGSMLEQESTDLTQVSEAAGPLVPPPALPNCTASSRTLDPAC

Row | Molecule | Ki (Galanin receptor type 3 [1]) [nM] | Ki (Galanin receptor type 3 [2]) [nM] | Ki (Galanin receptor type 2) [nM]
1 | CC[C@H](C)[C@H](NC(=O)[C@H](C)NC(=O)[C@H](Cc1c[nH]cn1)NC(=O)[C@@H]1CCCN1C(=O)CNC(=O)[C@H](CC(C)C)NC(=O)[C@H](CC(C)C)NC(=O)[C@H](Cc1ccc(O)cc1)NC(=O)CNC(=O)[C@H](C)NC(=O)[C@H](CO)NC(=O)[C@H](CC(N)=O)NC(=O)[C@H](CC(C)C)NC(=O)[C@@H](N)[C@@H](C)O)C(=O)N[C@@H](CC(=O)O)C(=O)N[C@@H](CC(N)=O)C(=O)N[C@@H](Cc1c[nH]cn1)C(=O)N[C@@H](CCCNC(=N)N)C(=O)N[C@@H](CO)C(=O)N[C@@H](Cc1ccccc1)C(=O)N[C@@H](Cc1c[nH]cn1)C(=O)N[C@@H](CC(=O)O)C(=O)N[C@@H](CCCCN)C(=O)N[C@@H](Cc1ccc(O)cc1)C(=O)NCC(=O)N[C@@H](CC(C)C)C(=O)N[C@@H](C)C(N)=O [Galanin (3-29), porcine] | 1000 | – | –
2 | CC[C@H](C)[C@H](NC(=O)[C@H](Cc1ccc(O)cc1)NC(=O)[C@H](Cc1c[nH]cn1)NC(=O)[C@H](CCCNC(=N)N)NC(=O)[C@@H]1CCCN1C(=O)CNC(=O)[C@H](CC(C)C)NC(=O)[C@H](CC(C)C)NC(=O)[C@H](Cc1ccc(O)cc1)NC(=O)CNC(=O)[C@H](C)NC(=O)[C@H](CO)NC(=O)[C@H](CC(N)=O)NC(=O)[C@H](CC(C)C)NC(=O)[C@@H](NC(=O)[C@H](Cc1c[nH]c2ccccc12)NC(=O)CN)[C@@H](C)O)C(=O)N[C@@H](CC(N)=O)C(=O)N[C@@H](CC(C)C)C(=O)N[C@H](C(=O)N[C@H](C(=O)N[C@@H](CCCNC(=N)N)C(=O)N[C@@H](CCC(N)=O)C(=O)N[C@@H](CCCNC(=N)N)C(=O)N[C@@H](Cc1ccc(O)cc1)C(N)=O)[C@@H](C)O)[C@@H](C)CC [M32] | – | 1.23 | –
3 | H-GWTLNSAGYLLGPPPALALA-NH2 [M40] | 288 | 79.4 | 3.55
4 | CC(C)C[C@H](NC(=O)[C@H](CC(C)C)NC(=O)[C@@H](Cc1c[nH]c2ccccc12)NC(=O)[C@H](Cc1ccccc1)NC(=O)[C@@H](Cc1c[nH]c2ccccc12)NC(=O)[C@H](CCC(N)=O)NC(=O)[C@H](CCC(N)=O)NC(=O)[C@@H]1CCCN1C(=O)[C@H](CCCCN)NC(=O)[C@@H]1CCCN1C(=O)[C@@H](CCCN=C(N)N)NC(=O)[C@@H]1CCCN1C(=O)CNC(=O)[C@H](CC(C)C)NC(=O)[C@H](CC(C)C)NC(=O)[C@H](Cc1ccc(O)cc1)NC(=O)CNC(=O)[C@H](C)NC(=O)[C@H](CO)NC(=O)[C@H](CC(N)=O)NC(=O)[C@H](CC(C)C)NC(=O)[C@@H](NC(=O)[C@H](Cc1c[nH]c2ccccc12)NC(=O)CN)[C@@H](C)O)C(N)=O [Gal(1-13)-Std I] (HELM PEPTIDE1{G.W.T.L.N.S.A.G.Y.L.L.G.P.[dR].P.K.P.Q.Q.[dW].F.[dW].L.L.[am]}$$$$V2.0) | 8.13 | – | 0.56
5 | CC(C)C[C@H](NC(=O)[C@H](CC(C)C)NC(=O)[C@@H](Cc1c[nH]c2ccccc12)NC(=O)[C@H](Cc1ccccc1)NC(=O)[C@@H](Cc1c[nH]c2ccccc12)NC(=O)[C@H](CCC(N)=O)NC(=O)[C@H](CCC(N)=O)NC(=O)[C@@H]1CCCN1C(=O)[C@H](CCCCN)NC(=O)[C@@H]1CCCN1C(=O)[C@@H](CCCNC(=N)N)NC(=O)[C@@H]1CCCN1C(=O)CNC(=O)[C@H](CC(C)C)NC(=O)[C@H](CC(C)C)NC(=O)[C@H](Cc1ccc(O)cc1)NC(=O)CNC(=O)[C@H](C)NC(=O)[C@H](CO)NC(=O)[C@H](CC(N)=O)NC(=O)[C@H](CC(C)C)NC(=O)[C@@H](NC(=O)[C@H](Cc1c[nH]c2ccccc12)NC(=O)CN)[C@@H](C)O)C(N)=O [Gal(1-13)-Std I] (HELM PEPTIDE1{G.W.T.L.N.S.A.G.Y.L.L.G.P.[dR].P.K.P.Q.Q.[dW].F.[dW].L.L.[am]}$$$$V2.0) | – | 4.47 | –
6 | CC(C)C[C@H](NC(=O)[C@H](CC(C)C)NC(=O)[C@H](Cc1ccc(O)cc1)NC(=O)CNC(=O)[C@H](C)NC(=O)[C@H](CO)NC(=O)[C@H](CC(N)=O)NC(=O)[C@H](CC(C)C)NC(=O)[C@@H](NC(=O)[C@H](Cc1c[nH]c2ccccc12)NC(=O)CN)[C@@H](C)O)C(=O)NCC(=O)N1CCC[C@H]1C(=O)N1CCC[C@H]1C(=O)N1CCC[C@H]1C(=O)NCC(=O)N[C@@H](Cc1ccccc1)C(=O)N[C@@H](CO)C(=O)N1CCC[C@H]1C(=O)N[C@@H](Cc1ccccc1)C(=O)N[C@@H](CCCN=C(N)N)C(N)=O | 14.4 | 2.09 | –
7 | CC[C@H](C)[C@H](NC(=O)[C@H](C)NC(=O)[C@H](Cc1cnc[nH]1)NC(=O)[C@@H]1CCCN1C(=O)CNC(=O)[C@H](CC(C)C)NC(=O)[C@H](CC(C)C)NC(=O)[C@H](Cc1ccc(O)cc1)NC(=O)CNC(=O)[C@H](C)NC(=O)[C@H](CO)NC(=O)[C@H](CC(N)=O)NC(=O)[C@H](CC(C)C)NC(=O)[C@@H](NC(=O)[C@H](Cc1c[nH]c2ccccc12)NC(=O)CN)[C@@H](C)O)C(=O)N[C@@H](CC(=O)O)C(=O)N[C@@H](CC(N)=O)C(=O)N[C@@H](Cc1cnc[nH]1)C(N)=O [Galanin rat] | 12.3 | 3.31 | 1.35
8 | COc1ccccc1N(CCOc1ccc(C)cc1)C(=O)CN1CCCCC1 [CAS_3043476] | 39.8 | 10.5 | 1
